From article PMC12670779, “Targeting the CXCL12/CXCR4 pathway by an optimized derivative or EPI-X4 preserves chondrocyte function and offers a novel therapeutic approach in rheumatic diseases” (Arthritis Research & Therapy, 2025)
Structures can show the parent of a compound that is named as a salt. Where two headings read alike, the source gives them in different places. Residues, ends and D or L forms follow the SMILES beside them.

What was measured:
[1] = tested on: human articular chondrocytes (hAC); experiment: Osteogenic differentiation of hAC, Alizarin Red S staining (calcium deposition); format: cell-based; conditions: 21 d osteogenic differentiation medium; 200 ng/mL CXCL12; inhibitors 1 µM; n = 5
Method: (§1) hAC were seeded in passage 2 at a density of 1 × 10^4 cells/cm^2 and osteogenic differentiation was induced on the next day by addition of osteogenic differentiation medium [ODM: DMEM, 10% FBS, 1 g/L glucose, 1% L-glutamine, 1% penicillin/streptomycin, 10 mM β-glycerophosphate disodium salt hydrate (Sigma-Aldrich), 0.1 µM dexamethasone, 200 µM 2-phospho-L-ascorbic acid trisodium salt]. […] Medium was changed twice a week and additives were refreshed every time. Cells cultured in BM served as negative control.
Evaluation of osteogenic differentiation was carried out by means of an Alizarin Red S staining which indicates calcium deposition. At first, cells were incubated in 70% ethanol for 1 h and subsequently stained with a 40 mM Alizarin Red S solution. For quantification, the cells were washed carefully and bound Alizarin Red S was dissolved in 10% Cetylpyridinium (Sigma-Aldrich). With a multimode microplate reader Infinite M200 Pro (Tecan Austria GmbH, Crailsheim, Germany), absorbance at 652 nm was measured and the amount of Alizarin Red S was calculated based on a standard calibration curve.

[2] = tested on: human articular chondrocytes (hAC); experiment: Ki-67 immunocytochemistry (proliferation); format: cell-based; conditions: 48 h; 200 ng/mL CXCL12; simultaneous addition of inhibitors 1 µM; n = 4
Method: On the next day, an Alexa Fluor 488 labled anti-rabbit antibody (1:200, ab150077, Abcam) was added and nuclei were stained with DAPI (0.25 µg/mL). The fluorescence microscope Axioskop 2 mot plus was used for imaging and Ki-67 appeared in green and nuclei in blue.

MSCs = conditions: AMD3100 400 µM, cited from earlier work
mice [3] = conditions: cited from earlier work
From the text: In case of CXCR4, there is evidence that binding of CXCL12 promotes a hypertrophic phenotype in chondrocytes, characterized by enhanced catabolic enzyme production (e.g., matrix metalloproteinase 13 (MMP-13)) and collagen type X expression. […] It should also be considered that the pathophysiological mechanisms are not mediated by chondrocytes alone.

[4] = tested on: Dunkin Hartley guinea pigs; conditions: cited from earlier work
From the text: (§2) In case of CXCR4, there is evidence that binding of CXCL12 promotes a hypertrophic phenotype in chondrocytes, characterized by enhanced catabolic enzyme production (e.g., matrix metalloproteinase 13 (MMP-13)) and collagen type X expression.

ACKR3 [5] = biological target: T1, ACKR3 (Homo sapiens, UniProt P25106); conditions: cited from earlier work
From the text: as §2

mice [6] = conditions: cited from earlier work; remark: listed apart in the source
From the text: as §2

[7] = tested on: human articular chondrocytes (hAC); experiment: Gene expression during osteogenic differentiation of hAC (qRT-PCR); format: cell-based; conditions: 14 d osteogenic differentiation; 200 ng/mL CXCL12; inhibitors 1 µM; n = 4
Method: as §1

ACKR3 [8] = biological target: T1, ACKR3; experiment: β-arrestin-2 recruitment at ACKR3, agonism (NanoBiT, transfected HEK293T cells); format: cell-based; design: SmBiT (NanoBiT fragment); expressed in transfected cells; host or cells: HEK293T; conditions: compound alone
Method: Fifteen thousand HEK293T cells were seeded in 92 µL complete DMEM medium (supplemented with 10% FCS, 1% L-Glutamine and 1% penicillin/streptomycin) and allowed to adhere overnight. On the next day cells were transfected with plasmids containing a β-arrestin-2 coupled to a SmBiT and a CXCR4 or ACKR3 construct coupled to the LgBiT of the NanoBiT protein–protein-interaction assay system. The SmBiT was coupled to the intracellular C-term of the receptor, while the LgBiT was coupled to the N-term of the ß-arrestin. For the transfection, LT1 transfection reagent was used according to manufacturer’s instructions. The next day, medium was changed to 100µL pre-warmed OptiMEM before luminescence measurements were initiated.
For agonism measurements, single compounds were added to the wells after 10 min of background measurement. Baseline correction was performed in the same manner and resulting AUCs were compared to the buffer-only control wells to calculate n-fold ß-arrestin induction.

[9] = cited from earlier work
mouse = conditions: both inflammatory mouse models; cited from earlier work
From the text: To date, three CXCR4 antagonist have been approved for clinical applications. However, these ligands are only approved for autologous stem cell transplantation in Non-Hodgkin’s lymphoma and the treatment of the WHIM syndrome, a rare congenital immunodeficiency disorder. One decade ago, another promising CXCR4 inhibitor was identified – the Endogenous Peptide Inhibitor of CXCR4, termed EPI-X4 [33]. EPI-X4 is a 16 amino acids long endogenous fragment of human serum albumin and specifically binds to CXCR4 thereby acting as an antagonist and inverse agonist. Using rational dru ...

CXCR4 = biological target: T2, CXCR4 (Homo sapiens, UniProt P61073); experiment: Inhibition of CXCL12-induced β-arrestin-2 recruitment at CXCR4 (NanoBiT, transfected HEK293T cells); format: cell-based
T2 construct: SmBiT (NanoBiT fragment); expressed in transfected cells; host or cells: HEK293T
Method: Fifteen thousand HEK293T cells were seeded in 92 µL complete DMEM medium (supplemented with 10% FCS, 1% L-Glutamine and 1% penicillin/streptomycin) and allowed to adhere overnight. On the next day cells were transfected with plasmids containing a β-arrestin-2 coupled to a SmBiT and a CXCR4 or ACKR3 construct coupled to the LgBiT of the NanoBiT protein–protein-interaction assay system. […] For the transfection, LT1 transfection reagent was used according to manufacturer’s instructions. The next day, medium was changed to 100µL pre-warmed OptiMEM before luminescence measurements were initiated.
For antagonism measurements, cells were first supplied with compounds and 10 min later with 30 nM CXCL12. Subsequently, luminescence signal was measured over 1 h. Baseline luminescence of each well in the first 10 min was averaged and used to calculate the signal-to-noise ratio for all subsequent time points of the same well. The signal-to-noise ratios were further recalculated as a ratio to the average of buffer-only treated wells. These values were plotted over time and areas under curve (AUCs) were determined for each well. Data were normalized to buffer-only wells as 0% and CXCL12-only treated wells as 100%.

[10] = tested on: human articular chondrocytes (hAC); experiment: alamarBlue cytotoxicity/cell proliferation assay; format: cell-based; conditions: 24 h; 200 ng/mL CXCL12; CXCR4 inhibitors 1 µM in combination with CXCL12 or alone; n = 5
Method: (§3) During experiments, hAC were cultured in medium with reduced FBS content (5%) and stimulated with 200 ng/mL CXCL12, 1 µM compounds and/or 10 ng/mL IL-1β. Stress-induced premature senescence (SIPS) was induced by Doxorubicin (Doxo) (Selleckchem) treatment. The senescent phenotype was confirmed as previously described. In brief, hAC were exposed to 0.1 µM Doxo for 7 days. Doxo was refreshed three times per week.
To quantitatively assess the cell proliferation and cytotoxicity of hAC, an alamarBlue (BioRad, Munich, Germany) assay was used. The assay is based on the conversion of non-fluorescent resazurin to fluorescent resorufin during cellular respiration. The fluorescence intensity of resorufin was measured at 550 nm excitation and 590 nm emission with a multimode microplate reader Infinite M200 Pro (Tecan, Crailsheim, Germany). Unstimulated cells served as baseline (100% cell viability).

[11] = tested on: human articular chondrocytes (hAC); experiment: Chondrogenic re-differentiation of hAC in pellet culture, histological scoring; format: cell-based; conditions: 28 d in chondrogenic differentiation medium; 200 ng/mL CXCL12; inhibitors 1 µM; n ≥ 4
Method: Pellet cultures were generated containing 3.5 × 10^5 hAC in passage 3 and were cultured in chondrogenic differentiation medium [SFM: DMEM, 4.5 g/L glucose, 1% L-glutamine, 1% penicillin/streptomycin, 200 μM 2-phospho-L-ascorbic acid trisodium salt, 0.1% Insulin-Transferrin-Selenium, 0.1 µM dexamethasone (Sigma-Aldrich), 40 µg/mL L-proline (Sigma-Aldrich), 1% pyruvate, 10 ng/mL rhTGF-β3 (PeproTech), 10 ng/mL rhBMP6 (PeproTech)]. The medium was changed twice per week and 200 ng/mL CXCL12 and 1 µM compounds was added. After 28 days, resulting cell pellets were embedded in paraffin and prepared for histology (Collagen type II-IHC and Safranin O staining). For evaluation, a previously established scoring system was used (supplementary Table S2).

[12] = tested on: human articular chondrocytes (hAC); experiment: Live cell imaging of undirected migration; format: cell-based; conditions: 200 ng/mL CXCL12; inhibitors 1 µM; monitored for 10 h (method), legend says 48 h; normalized to untreated control; n = 5
Method: Subsequently, cell localization was monitored for 10 h with a Live Cell Imaging Microscope Leica DMI6000 I (Leica Microsystems, Wetzlar, Germany). Images were acquired every 30 min and at least 6 cells of each well were manually tracked with ImageJ 2.9.0. The average migration distance was calculated and values were normalized to the untreated control.

[13] = tested on: human articular chondrocytes (hAC); experiment: Wound healing assay; format: cell-based; conditions: 24 h; 200 ng/mL CXCL12; inhibitors 1 µM; 5% FBS; n ≥ 5
Method: At first, a 2 Well Culture-Insert (Ibidi, Gräfelfing, Germany) was attached on a well of a 24 well plate. In each well of the insert, 70 µL cell suspension containing 20,000 hAC (passage 1 or 2) was added and incubated overnight. Next, medium with reduced FBS content (5%) was added and the insert carefully removed. […] Images were captured (Canon EOS 700D camera (Canon, Krefeld, Germany)) after 0 h and 24 h. Cells migrated into the gap were manually counted as previously described.

[14] = tested on: human articular chondrocytes (hAC); experiment: Gene expression of hypertrophy markers in isolated hAC (qRT-PCR); format: cell-based; conditions: 48 h; 200 ng/mL CXCL12; n = 4
Method: as §3

human cartilage explants = experiment: Live/dead viability/cytotoxicity assay in cartilage explants; format: cell-based; conditions: day 7; 200 ng/mL CXCL12 with or without CXCR4 inhibitors 1 µM; n = 5
Method: A Live/Dead Viability/Cytotoxicity Assay (Live Technologies) was applied to determine the number of living and dead cells in cartilage explants. A small tissue section of 0.5 mm thickness was extracted from an unfixed cartilage explant and incubated for 40 min in a staining solution (1 µM calcein and 2 µM ethidium homodimer-1). Microscopic analysis was carried out with a Axioskop 2 mot plus microscope and using a z-stack model (AxioVision software).

T1 sequence (P25106 whole entry): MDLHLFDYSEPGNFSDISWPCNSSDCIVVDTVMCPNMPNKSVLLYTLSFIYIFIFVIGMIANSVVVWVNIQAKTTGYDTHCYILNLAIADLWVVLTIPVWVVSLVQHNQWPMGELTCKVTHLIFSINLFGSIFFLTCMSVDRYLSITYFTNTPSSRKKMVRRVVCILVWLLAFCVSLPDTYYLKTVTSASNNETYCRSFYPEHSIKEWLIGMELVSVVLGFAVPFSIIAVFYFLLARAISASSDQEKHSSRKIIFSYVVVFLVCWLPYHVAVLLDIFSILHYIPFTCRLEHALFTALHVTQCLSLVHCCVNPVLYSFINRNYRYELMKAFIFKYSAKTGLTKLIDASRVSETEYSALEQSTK
T1 sequence (P32121 whole entry partner): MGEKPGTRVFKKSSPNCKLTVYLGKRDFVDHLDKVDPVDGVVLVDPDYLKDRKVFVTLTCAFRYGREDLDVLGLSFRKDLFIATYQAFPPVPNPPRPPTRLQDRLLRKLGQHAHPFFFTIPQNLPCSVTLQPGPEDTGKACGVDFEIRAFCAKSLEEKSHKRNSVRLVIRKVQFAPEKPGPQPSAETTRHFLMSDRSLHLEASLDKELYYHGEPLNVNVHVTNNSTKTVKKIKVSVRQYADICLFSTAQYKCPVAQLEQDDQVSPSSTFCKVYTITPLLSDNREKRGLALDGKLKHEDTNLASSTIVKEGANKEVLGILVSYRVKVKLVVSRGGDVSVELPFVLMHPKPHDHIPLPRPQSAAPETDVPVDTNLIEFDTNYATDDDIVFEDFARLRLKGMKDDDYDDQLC
T2 sequence (P61073 whole entry, the tested form may be a part): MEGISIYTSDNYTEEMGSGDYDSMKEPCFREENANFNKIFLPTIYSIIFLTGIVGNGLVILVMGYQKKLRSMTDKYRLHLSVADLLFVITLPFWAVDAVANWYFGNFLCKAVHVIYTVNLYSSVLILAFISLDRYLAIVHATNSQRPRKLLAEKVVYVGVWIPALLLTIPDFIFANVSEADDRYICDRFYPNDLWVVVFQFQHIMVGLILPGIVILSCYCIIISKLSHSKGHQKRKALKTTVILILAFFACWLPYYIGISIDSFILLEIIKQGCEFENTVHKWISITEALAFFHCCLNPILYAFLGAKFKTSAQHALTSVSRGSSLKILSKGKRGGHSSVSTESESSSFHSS

Compound: c1cc(CN2CCCNCCNCCCNCC2)ccc1CN1CCCNCCNCCCNCC1 [AMD3100, AMD3100 octahydrochloride hydrate]
- Ca2+ deposition / matrix calcification (Alizarin Red S) [1]: could not find any influence
- proliferation (Ki-67-positive cells) [2]: not altered
- matrix calcification during in vitro osteogenesis of MSCs (MSCs): not affected
- gene expression of osteogenic markers during in vitro osteogenesis of MSCs (MSCs; to a limited extend): impaired
- surgically-induced OA (mice [3]; mice): attenuate
- severity of surgically-induced OA on inhibition in subchondral bone (mice [3]; mouse model, delivery to subchondral bone via an osmotic pump): reduced the severity
- spontaneous OA development [4]: attenuate
- activity at ACKR3 (ACKR3 [5]): weak allosteric agonist
- collagen-induced arthritis (CIA) (mice [6]): attenuate
- expression of the hypertrophic marker COL10A1 during osteogenic differentiation [7]: significantly reduced
- gene expression of osteogenic markers (ALPL, RUNX2, SP7, IBSP) [7]: could not find any influence
- agonistic activity to recruit β-arrestin-2 at ACKR3 (ACKR3 [8]; concentrations up to 10 µM): weak agonistic activity
- clinical peak plasma concentrations [9]: ~ 1 μM
- activity in mouse models of atopic dermatitis and eosinophilic asthma (mouse): only poorly active

Compound: CC[C@H](C)[C@H](N)C(=O)N[C@@H](CC(C)C)C(=O)N[C@@H](CCCNC(=N)N)C(=O)N[C@@H](Cc1c[nH]c2ccccc12)C(=O)N[C@@H](CO)C(=O)N[C@@H](CCCNC(=N)N)C(=O)N[C@@H](CCCCN)C(=O)N[C@@H](CC(C)C)C(=O)N1CCC[C@H]1C(=O)N[C@@H](CS)C(=O)N[C@H](C(=O)N[C@@H](CO)C(=O)O)C(C)C [EPI-X4 JM#21]
- EC50 (ACKR3 [8]; AUC vs buffer-only control): 7800 nM
- IC50 (CXCR4; read-out: IC50, inhibition of CXCL12-induced recruitment of β-arrestin-2 at CXCR4): 164 nM

Compound: CC(C)C[C@H](NC(=O)[C@@H](NC(=O)[C@@H]1CCCN1C(=O)[C@@H](NC(=O)[C@H](CO)NC(=O)[C@@H](NC(=O)[C@H](CCC(N)=O)NC(=O)[C@@H]1CCCN1C(=O)[C@@H](NC(=O)[C@H](CCCCN)NC(=O)[C@H](CCCCN)NC(=O)[C@@H](NC(=O)[C@H](Cc1ccc(O)cc1)NC(=O)[C@H](CCCNC(=N)N)NC(=O)[C@@H](NC(=O)[C@@H](N)CC(C)C)C(C)C)[C@@H](C)O)C(C)C)C(C)C)[C@@H](C)O)[C@@H](C)O)C(=O)O [EPI-X4] (H-LVRYTKKVPQVSTPTL-OH)
- IC50 (CXCR4): 10.2 nM

Compound: CXCL12: C-X-C motif chemokine 12, ligand of CXCR4 and ACKR3; used as stimulus at 200 ng/mL
- cytotoxic effects in isolated chondrocytes (alamarBlue, relative fluorescence intensity) [10]: did not observe any cytotoxic effects
- Ca2+ deposition / matrix calcification (Alizarin Red S) [1]: could not find any influence
- proliferation (Ki-67-positive cells) [2]: not altered
- neocartilage formation, histologic assessment (score) of pellet culture [11]: did not reveal any significant effect
- migration distance of isolated hAC (live cell tracking) [12]: increased
- number of migrated hAC in wound healing assay [13]: significantly increased
- gene expression of COL10A1 in isolated chondrocytes [14]: did not significantly induce
- gene expression of MMP13 in isolated chondrocytes [14]: did not significantly induce
- expression of the hypertrophic marker COL10A1 during osteogenic differentiation [7]: tended to increase
- gene expression of osteogenic markers (ALPL, RUNX2, SP7, IBSP) [7]: could not find any influence
- cytotoxic effects in native cartilage tissue (live/dead assay) (human cartilage explants): did not observe any cytotoxic effects
